# Assay results as given in patent US9447085B2, “Iminothiadiazine dioxides containing a thioamide, amidine, or amide oxime group as BACE inhibitors, compositions, and their use” (Merck Sharp & Dohme Corp., priority 2012, dated 2016).
# What was measured:
# [1] = target: purified human autoBACE-2 (Homo sapiens (Human), UniProt Q9Y5Z0); experiment: BACE-2 Assay (BACE-HTRF assay); type: biochemical; conditions: Ki calculated from IC50 using the Cheng-Prusoff equation; read-out: BACE2 Ki
# Description: Inhibitor IC50s at purified human autoBACE-2 are determined in a time-resolved endpoint proteolysis assay that measures hydrolysis of the QSY7-[…]-Eu-amide FRET peptide substrate (BACE-HTRF assay). […] DMSO is present at 5% final concentration in the assay. Following laser excitation of sample wells at 320 nm, the fluorescence signal at 620 nm is collected for 400 ms following a 50 μs delay on a RUBYstar HTRF plate reader (BMG Labtechnologies). Raw RFU data is normalized to maximum (1.0 nM BACE/DMSO) and minimum (no enzyme/DMSO) RFU values. […] The Ki values are calculated from the IC50 using the Cheng-Prusoff equation.
# [2] = target: soluble human BACE1 catalytic domain (Homo sapiens (Human), UniProt P56817); experiment: BACE1 HTRF FRET Assay; type: biochemical; conditions: for Ki: Ki calculated from IC50 using the Cheng-Prusoff equation
# Description: A homogeneous time-resolved FRET assay can be used to determine IC50 values for inhibitors of the soluble human BACE1 catalytic domain. This assay monitors the increase of 620 nm fluorescence that resulted from BACE1 cleavage of an APPswedish APP^swe mutant peptide FRET substrate (QSY7-[…]-Europium-amide). This substrate contains an N-terminal QSY7 moiety that serves as a quencher of the C-terminal Europium fluorophore (620 nm Em). In the absence of enzyme activity, 620 nm fluorescence is low in the assay and increased linearly over 3 hours in the presence of uninhibited BACE1 enzyme Inhibition of BACE1 cleavage of the QSY7-APP^swe-Eu substrate by inhibitors is manifested as a suppression of 620 nm fluorescence.
# Reactions are initiated by addition of 10 μl of 600 nM QSY7-APP^swe-Eu substrate (200 nM final) to give a final reaction volume of 30 μl in a 384 well Nunc HTRF plate. The reactions are incubated at 30° C. for 1.5 hours. The 620 nm fluorescence is then read on a Rubystar HTRF plate reader (BMG Labtechnologies) using a 50 millisecond delay followed by a 400 millisecond acquisition time window Inhibitor IC50 values are derived from non-linear regression analysis of concentration response curves.
# Chain of soluble human BACE1 catalytic domain (P56817 75-416): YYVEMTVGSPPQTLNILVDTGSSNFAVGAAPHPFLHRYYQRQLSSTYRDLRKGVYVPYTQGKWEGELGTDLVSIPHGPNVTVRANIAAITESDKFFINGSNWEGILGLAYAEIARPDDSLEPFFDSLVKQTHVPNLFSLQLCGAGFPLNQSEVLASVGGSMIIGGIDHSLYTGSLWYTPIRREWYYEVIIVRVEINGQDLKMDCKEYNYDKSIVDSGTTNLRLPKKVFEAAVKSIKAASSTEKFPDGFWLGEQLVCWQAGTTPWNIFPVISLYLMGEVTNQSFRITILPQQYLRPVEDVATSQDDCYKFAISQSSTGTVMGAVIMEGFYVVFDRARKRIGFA
# Chain of purified human autoBACE-2 (Q9Y5Z0 63-473): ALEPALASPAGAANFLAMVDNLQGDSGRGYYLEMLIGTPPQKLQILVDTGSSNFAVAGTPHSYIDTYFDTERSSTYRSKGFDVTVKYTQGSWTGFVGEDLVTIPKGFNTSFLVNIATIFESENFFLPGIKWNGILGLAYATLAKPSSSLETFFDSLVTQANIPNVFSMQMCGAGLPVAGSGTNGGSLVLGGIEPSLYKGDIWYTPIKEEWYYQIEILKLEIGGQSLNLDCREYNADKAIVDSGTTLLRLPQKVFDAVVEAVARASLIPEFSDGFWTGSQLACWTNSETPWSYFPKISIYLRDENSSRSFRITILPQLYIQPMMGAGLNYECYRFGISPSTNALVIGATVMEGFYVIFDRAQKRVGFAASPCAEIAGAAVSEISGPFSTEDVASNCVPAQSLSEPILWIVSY
Compound,Ki [1],Ki [2],inhibition at 10 µM ([2]; @ 10 uM)
COc1ccc(C(=S)Nc2ccc(F)c([C@]3(C)CS(=O)(=O)N(C)C(=N)N3)c2)nc1 [Example 2],8 nM,57 nM,
CN1C(=N)N[C@](C)(c2cc(NC(=S)C(F)F)ccc2F)CS1(=O)=O [Example 4],7 nM,83 nM,
CO/N=C(/Nc1ccc(F)c([C@]2(C)CS(=O)(=O)N(C)C(=N)N2)c1)c1ccc(OC)cn1 [Example 5],1450 nM,,47%
CO/N=C(/Nc1ccc(F)c([C@]2(C)CS(=O)(=O)N(C)C(=N)N2)c1)c1ccc(Cl)cn1 [Example 6],58 nM,340 nM,
CN1C(=N)N[C@](C)(c2cc(NC(=N)c3ccc(Br)cn3)ccc2F)CS1(=O)=O [Example 7],148 nM,371 nM,
COc1ccc(C(=S)Nc2cc(F)c(F)c([C@]3(C)CS(=O)(=O)N(C)C(=N)N3)c2)nc1 [Example 9],15 nM,57 nM,
COCC(=S)Nc1cc(F)c(F)c([C@]2(C)CS(=O)(=O)N(C)C(=N)N2)c1 [Example 10],6 nM,188 nM,
CN1C(=N)N[C@](C)(c2cc(NC(=S)C(F)F)cc(F)c2F)CS1(=O)=O [Example 11],28 nM,95 nM,
CN1C(=N)N[C@](C)(c2cc(NC(=S)c3ccc(C(F)(F)F)cn3)cc(F)c2F)CS1(=O)=O [Example 13],21 nM,30 nM,
COc1cnc(C(=S)Nc2cc(F)c(F)c([C@]3(C)CS(=O)(=O)N(C)C(=N)N3)c2)cn1 [Example 14],18 nM,8 nM,

# The next compounds have a lower Ki [1] than those just listed; values first:
Ki [1],Ki [2],inhibition at 10 µM ([2]; @ 10 uM),Compound
1 nM,9.1 nM,,CN1C(=N)N[C@](C)(c2cc(NC(=S)c3ccc(Cl)cn3)ccc2F)CS1(=O)=O [Example 1]
2 nM,152 nM,,COCC(=S)Nc1ccc(F)c([C@]2(C)CS(=O)(=O)N(C)C(=N)N2)c1 [Example 3]
2 nM,25 nM,,CN1C(=N)N[C@](C)(c2cc(NC(=S)c3ccc(F)cn3)ccc2F)CS1(=O)=O [Example 4b]
4 nM,3 nM,,COc1cnc(C(=S)Nc2ccc(F)c([C@]3(C)CS(=O)(=O)N(C)C(=N)N3)c2)cn1 [Example 4c]
2 nM,9 nM,,CN1C(=N)N[C@](C)(c2cc(NC(=S)c3ccc(Cl)cn3)cc(F)c2F)CS1(=O)=O [Example 8]
3 nM,17 nM,,CN1C(=N)N[C@](C)(c2cc(NC(=S)c3ccc(F)cn3)cc(F)c2F)CS1(=O)=O [Example 12]
